The target in experiment [1] is complement component C3b. The settings on record: Isenman, 1983; read-out: Kd of ANS binding to complement component C3b; cited from earlier work.
Experiment [2] has as its target T1, u-PAR (Homo sapiens, UniProt Q03405).
T1 construct: made in house; host or cells: Chinese hamster ovary (CHO) cells, conditioned media
As to the kind of experiment: fluorescence titration of u-PAR with ANS (Scatchard). Format: binding. The settings on record: intact u-PAR. The procedure:
ANS titration. The stoichiometry and affinity of ANS binding to u-PAR was determined by titrating fixed concentrations of u-PAR with ANS up to a concentration of 100 μM. The observed fluorescence intensities were corrected for the dilution effect of the added ANS, the low background fluorescence of ANS in buffer and for the inner filter effect of the varying concentration of ANS. The latter was performed using the relationship
where ε386 is the molar extinction coefficient of ANS at half the path length of the fluorescence cuvette, ANSo is the total ANS concentration, and Fobs and Fcorr are the observed and corrected fluorescence intensities. The concentration of bound ANS was determined from the relationship
where Fmax is the theoretical fluorescence of a molar solution if all were bound to u-PAR. This parameter was calculated by titration of a protein concentration sufficiently high to ensure that essentially all added ANS is bound in the initial linear part of the binding curve. The data generated in this way were analyzed by the method of Scatchard.

The target of experiment [3] is apohemoglobin. The settings on record: Stryer, 1965; read-out: Kd of ANS binding to apohemoglobin; cited from earlier work.
Experiment [4] deals with T1, u-PAR. As to the kind of experiment: protease cleavage of u-PAR monitored by ANS fluorescence. It is filed as biochemical. The procedure:
Fluorescence measurements. […] All fluorescence measurements were made using 2 μM u-PAR and 10 μM ANS in PBS at 25° C. unless otherwise stated.

We go through two compounds from patent US6025142A, “Hydrophobic u-PAR binding site” (Boehringer Mannheim GmbH, priority 1994, dated 2000).

T1 sequence (Q03405 23-299): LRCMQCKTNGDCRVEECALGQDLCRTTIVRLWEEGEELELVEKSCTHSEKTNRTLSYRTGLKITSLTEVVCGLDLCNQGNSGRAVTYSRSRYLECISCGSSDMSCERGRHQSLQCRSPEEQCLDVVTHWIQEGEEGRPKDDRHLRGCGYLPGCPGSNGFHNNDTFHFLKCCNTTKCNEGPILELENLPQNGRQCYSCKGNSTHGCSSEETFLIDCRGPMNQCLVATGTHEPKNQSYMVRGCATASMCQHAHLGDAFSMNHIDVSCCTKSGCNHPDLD

Take `O=S(=O)(O)c1cccc2cccc(Nc3ccccc3)c12` [ANS, 8-anilino-1-naphthalene sulfonic acid]: the Kd in experiment [1] is 40 µM; in experiment [2] (PBS, 25° C., read-out: dissociation constant of ANS binding to u-PAR) it was 33.8 ± 3.2 µM; in experiment [3], 55 µM. Further, the “enhancement of ANS fluorescence intensity on binding to u-PAR” value in experiment [2] is above 10 fold. Further, the “stoichiometry of ANS binding” value in experiment [2] is listed as 1.09±0.17 moles/mole u-PAR.
Take chymotrypsin: the “reduction in the ANS fluorescence after cleavage of intact u-PAR” value in experiment [4] stood at 75%.
